For experiment [1], the system named is CCRF-CEM. Description: Growth inhibition of human CEM cells after 24 hrs by trypan blue staining. Type of experiment: functional, cell-based.
The test system of experiment [2] is CCRF-CEM. The experiment can be described thus: Growth inhibition of human CEM cells incubated in presence of light after 24 hrs by trypan blue staining. Type of experiment: functional, cell-based.

Active and inactive are the calls of the source. No cut-off for these calls is given here.

This passage reports IC50 and Activity results from ChEMBL document CHEMBL1151669, “Caparratriene, an active sesquiterpene hydrocarbon from Ocotea caparrapi” (J Nat Prod, 1996).

As usually defined, the IC50 is the point on the concentration scale where inhibition reaches its midpoint. The low end stands for higher potency, the high end for lower potency.

In the experiment on CCRF-CEM [1], `C/C=C(C)/C=C/C[C@H](C)CCC=C(C)C` [CAPARRATRIENE] came in with an IC50 of 3000 nM. Moreover, the outcome with CCRF-CEM [2] was Active.
